# Laboratory results published in patent publication US9469665B2, “Compound having lysophosphatidylserine receptor function modulation activity” (THE UNIVERSITY OF TOKYO, priority 2013, dated 2016).
# Structures can show the parent of a compound that is named as a salt.
row,Structure (SMILES),melting point
1,"CCCCCCCC/C=C\CCCCCCCC(=O)OC[C@@H](COCc1ccccc1)OP(=O)(O)OC[C@H](N)C(=O)O (as salt: TFA) [Example 7, (9Z)-Octadeca-9-enoic acid (2R)-2-[((2S)-2-amino-2-carboxy-ethoxy)-hydroxy-phosphoryloxy]-3-benzyloxy-propyl ester]",118.5 to 122 °C
2,"CCCCCCCCCCCOc1ccccc1CCC(=O)O[C@@H]1COCC[C@H]1OP(=O)(O)OC[C@H](N)C(=O)O (as salt: TFA) [Example 9, (2S)-2-amino-3-(hydroxyl-{(3R,4R)-3-[3-(2-undecyloxy-phenyl)-propionyloxy]-tetrahydropyran-4-yloxy}-phosphoryloxy)-propionic acid]",122 to 123 °C
3,"CCCCCCCCCCCOc1ccccc1CCC(=O)O[C@H]1CCOC[C@@H]1OP(=O)(O)OC[C@H](N)C(=O)O (as salt: TFA) [Example 10, (2S)-2-amino-3-(hydroxy-{(3S,4S)-4-[3-(2-undecyloxy-phenyl)-propionyloxy]-tetrahydro-pyran-3-yloxy}-phosphoryloxy)-propionic acid]",96.5 to 98.5 °C
4,"CCCCCCCC/C=C\CCCCCCCC(=O)OC[C@H]1OCCC[C@H]1OP(=O)(O)OC[C@H](N)C(=O)O (as salt: TFA) [Example 15, (9Z)-Octadeca-9-enoic acid (2R,3R)-3-[((2S)-2-amino-2-carboxy-ethoxy)-hydroxy-phosphoryloxy]-tetrahydropyran-2-ylmethyl ester]",70 to 80 °C
5,"CCCCCCCC/C=C\CCCCCCCC(=O)OC[C@H]1OCCC[C@@H]1OP(=O)(O)OC[C@H](N)C(=O)O (as salt: TFA) [Example 20, (9Z)-Octadeca-9-enoic acid (2R,3S)-3-[((2S)-2-amino-2-carboxy-ethoxy)-hydroxy-phosphoryloxy]-tetrahydro-pyran-2-ylmethyl ester]",70 to 80 °C
6,"C[C@H](OP(=O)(O)OC[C@H]1OCCC[C@@H]1OC(=O)CCc1ccccc1OCc1cccc(Oc2ccccc2)c1)[C@H](N)C(=O)O (as salt: TFA) [Example 27, (2S,3S)-2-amino-3-[hydroxyl-((2R,3S)-3-{3-[2-(3-phenoxy-benzyloxy)-phenyl]-propionyloxy}-tetrahydro-pyran-2-ylmethoxy)-phosphoryloxy]-butyric acid]",75 to 86 °C
7,"C[C@H](OP(=O)(O)OC[C@H]1OCCC[C@H]1OC(=O)CCc1ccccc1OCc1cccc(Oc2ccccc2)c1)[C@H](N)C(=O)O (as salt: TFA) [Example 28, (2S,3S)-2-amino-3-[hydroxyl-((2R,3R)-3-{3-[2-(3-phenoxy-benzyloxy)-phenyl]-propionyloxy}-tetrahydro-pyran-2-ylmethoxy)-phosphoryloxy]-butyric acid]",62 to 72 °C
8,"C[C@H](OP(=O)(O)O[C@@H]1CCCO[C@@H]1COC(=O)CCc1ccccc1OCc1cccc(Oc2ccccc2)c1)[C@H](N)C(=O)O (as salt: TFA) [Example 30, (2S,3S)-2-amino-3-[hydroxy-((2R,3R)-2-{3-[2-(3-phenoxy-benzyloxy)-phenyl]-propionyloxymethyl}-tetrahydro-pyran-3-yloxy)-phosphoryloxy]-butyric acid]",52 to 60 °C

# The remaining lines, values ahead:
row,melting point,Structure (SMILES)
1,132.8 to 134.8 °C,"CCCCCCCCCCCOc1ccccc1CCC(=O)O[C@H]1COCC[C@@H]1OP(=O)(O)OC[C@H](N)C(=O)O (as salt: TFA) [Example 11, (2S)-2-amino-3-(hydroxy-{(3S,4S)-3-[3-(2-undecyloxy-phenyl)-propionyloxy]-tetrahydro-pyran-4-yloxy}-phosphoryloxy)-propionic acid]"
2,144 to 144.5 °C,"CCCCCCCCCCCOc1ccc(C(C)(C)C)cc1CCC(=O)O[C@H]1COCC[C@@H]1OP(=O)(O)OC[C@H](N)C(=O)O (as salt: TFA) [Example 12, (2S)-2-amino-3-({(3S,4S)-3-[3-(5-tert-butyl-2-undecyloxy-phenyl)-propionyloxy]-tetrahydro-pyran-4-yloxy}-hydroxy-phosphoryloxy)-propionic acid]"
3,65 to 75 °C,N[C@@H](COP(=O)(O)OC[C@H]1OCCC[C@H]1OC(=O)CCc1ccccc1OCc1cccc(Oc2ccccc2)c1)C(=O)O (as salt: TFA) [Example 18]
4,70 to 86 °C,"CCCCCCCCCCCOc1ccccc1CCC(=O)OC[C@H]1OCCC[C@@H]1OP(=O)(O)OC[C@H](N)C(=O)O (as salt: TFA) [Example 21, (2S)-2-amino-3-(hydroxyl-{(2R,3S)-2-[3-(2-undecyloxy-phenyl)-propionyloxymethyl]-tetrahydro-pyran-3-yloxy}-phosphoryloxy)-propionic acid]"
5,42 to 54 °C,"C[C@H](OP(=O)(O)O[C@H]1CCCO[C@@H]1COC(=O)CCc1ccccc1OCc1cccc(Oc2ccccc2)c1)[C@H](N)C(=O)O (as salt: TFA) [Example 29, (2S,3S)-2-amino-3-[hydroxy-((2R,3S)-2-{3-[2-(3-phenoxybenzyloxy)-phenyl]-propionyloxymethyl}-tetrahydro-pyran-3-yloxy)-phosphoryloxy]-butyric acid]"
6,51.5 to 53.5 °C,"COC[C@H](COC(=O)CCc1ccccc1OCc1cccc(Oc2ccccc2)c1)OP(=O)(O)OC[C@H](N)C(=O)O (as salt: TFA) [Example 31, (2S)-2-amino-3-[hydroxy-((1R)-1-methoxymethyl-2-{3-[2-(3-phenoxy-benzyloxy)-phenyl]-propionyloxy}-ethoxy)-phosphoryloxy]-propionic acid]"
